# Laboratory results taken from patent US4795751A, “5-substituted-6,8-difluoroquinolines useful as antibacterial agents” (Dainippon Pharmaceutical Co., Ltd., priority 1985, dated 1989).
# How the values were obtained:
# [1] = test system: Streptococcus pyogenes A65; test: In vivo efficacy against systemic infections in mice; parameters: species or system Streptococcus pyogenes; male mice (ddY-S); conditions: A65, 168 h, oral, intraperitoneal infection 3×10^7 cells, twice, immediately and 6 h after infection, 7 days, calculated for free base, read-out: median effective dose (ED50)
# Method: (§1) Compounds were each dissolved in deionized water. Each of the solutions was orally administered to mice infected with each of the test organisms under the conditions shown hereinbelow, and the median effective dose (ED50) was calculated by probit analysis. The numerals in the table show ED50 (mg/kg) value, calculated for free base.
# (§2) Mice: Male mice (ddY-S) weighing about 20 g
# Streptococcus pyogenes A65
# Intraperitoneal infection with 3×10^7 cells per mouse suspended in brain heart infusion broth.
# (§3) Four times, immediately, 6, 24 and 30 hours after infection in case of Streptococcus pneumoniae 1 Neufeld. Twice, immediately and 6 hours after infection in case of other organisms.
# (§4) For 14 days in case of Staphylococcus aureus 50774 and Streptocuccus pneumoniae 1 Neufeld. For 7 days in case of other organisms.
# [2] = test system: B. subtilis PCI 219; test: In vitro antibacterial activity, twofold agar-dilution method; assay type: cell-based; conditions: Bacillus subtilis, PCI219; B. subtilis PCI 219 (Gram +); Mueller-Hinton agar, 20 h, 37° C.; calculated for free base; read-out: minimum inhibitory concentration (MIC)
# Method: (§5) The numbers in the table show minimum inhibitory concentrations (MIC) (μg/ml), calculated for free base. The minimum inhibitory concentration was determined by the twofold agar-dilution method, which was recommended by Japan Society of Chemotherapy (Chemotherapy, 29(1), 76(1981)), using Muller-Hinton agar. One loopful of an overnight culture of test organisms in Mueller-Hinton broth was inoculated onto 10-ml drug-containing agar layers in petri dishes. Bacterial inocula contained approximately 10^6 colonyl-formingunits. Bacterial growth was observed after 20-hour incubation at 37° C. The MIC was defined as the lowest drug concentration which prevented visible bacterial growth.
# [3] = test system: S. aureus No. 50774; test: as above; assay type: cell-based; conditions: Staphylococcus aureus; S. aureus No. 50774 (Gram +); Mueller-Hinton agar, 20 h, 37° C.; calculated for free base; read-out: minimum inhibitory concentration (MIC)
# Method: as §5
# [4] = test system: S. aureus No. 80; test: as above; assay type: cell-based; conditions: Staphylococcus aureus; S. aureus No. 80 (Gram +); Mueller-Hinton agar, 20 h, 37° C.; calculated for free base; read-out: minimum inhibitory concentration (MIC)
# Method: as §5
# [5] = test system: E. coli P-51213; test: as above; assay type: cell-based; conditions: Escherichia coli, P51213; E. coli P-51213 (Gram -); Mueller-Hinton agar, 20 h, 37° C.; calculated for free base; read-out: minimum inhibitory concentration (MIC)
# Method: as §5
# [6] = test system: Al. faecalis P-7001; test: as above; assay type: cell-based; conditions: Alcaligenes faecalis, P7001; Al. faecalis P-7001 (Gram -); Mueller-Hinton agar, 20 h, 37° C.; calculated for free base; read-out: minimum inhibitory concentration (MIC)
# Method: as §5
# [7] = test system: Ac. calcoaceticus P-6901; test: as above; assay type: cell-based; conditions: Acinetobacter calcoaceticus, P6901; Ac. calcoaceticus P-6901 (Gram -); Mueller-Hinton agar, 20 h, 37° C.; calculated for free base; read-out: minimum inhibitory concentration (MIC)
# Method: as §5
# [8] = test system: S. aureus 209P JC-1; test: as above; assay type: cell-based; conditions: Staphylococcus aureus; S. aureus 209P JC-1 (Gram +); Mueller-Hinton agar, 20 h, 37° C.; calculated for free base; read-out: minimum inhibitory concentration (MIC)
# Method: as §5
# [9] = test system: S. epidermidis No. 8; test: as above; assay type: cell-based; conditions: Staphylococcus epidermidis; S. epidermidis No. 8 (Gram +); Mueller-Hinton agar, 20 h, 37° C.; calculated for free base; read-out: minimum inhibitory concentration (MIC)
# Method: as §5
# [10] = test system: P. aeruginosa No. 12; test: as above; assay type: cell-based; conditions: Pseudomonas aeruginosa; P. aeruginosa No. 12 (Gram -); Mueller-Hinton agar, 20 h, 37° C.; calculated for free base; read-out: minimum inhibitory concentration (MIC)
# Method: as §5
# [11] = test system: male mice (ddY); test: Acute oral toxicity in mice; conditions: conclusion in words from Table 5
# Method: (§6) A solution containing each of compounds 1, 2 and 3 of this invention in various concentrations was orally given to male mice (ddY) at a dose of 0.1 ml per 10 g of body weight. The number of dead mice was counted after 7 days, and the value of median lethal dose (LD50, mg/kg) was calculated in accordance with the Behrens-Kaerber method.
# [12] = Acute oral toxicity in mice; conditions: mouse, in vivo, po
# Method: as §6
# [13] = test system: Staphylococcus aureus 50774; test: In vivo efficacy against systemic infections in mice; parameters: species or system Staphylococcus aureus; male mice (ddY-S); conditions: Staphylococcus aureus, 50774, 336 h, oral, intravenous infection 5×10^8 cells, twice, immediately and 6 h after infection, 14 days, calculated for free base, read-out: median effective dose (ED50)
# Method: as §1, §2
# Staphylococcus aureus 50774
# Intravenous infection with 5×10^8 cells per mouse suspended in saline.
# as §3, §4
# [14] = test system: Streptococcus pneumoniae 1 Neufeld; test: as above; parameters: species or system Streptococcus pneumoniae; male mice (ddY-S); conditions: 336 h, oral, intraperitoneal infection 3×10^3 cells, four times, immediately, 6, 24 and 30 h after infection, 14 days, calculated for free base, read-out: median effective dose (ED50)
# Method: as §1, §2
# Streptococcus pneumoniae 1 Neufeld
# Intraperitoneal infection with 3×10^3 cells per mouse suspended in brain heart infusion broth.
# as §3, §4
# [15] = test system: Pseudomonas aeruginosa 12; test: as above; parameters: species or system Pseudomonas aeruginosa; male mice (ddY-S); conditions: Pseudomonas aeruginosa, 12, 168 h, oral, intraperitoneal infection about 5×10^3 cells, 4% mucin, twice, immediately and 6 h after infection, 7 days, calculated for free base, read-out: median effective dose (ED50)
# Method: as §1, §2
# Pseudomonas aeruginosa 12
# Intraperitoneal infection with about 5×10^3 cells per mouse suspended in tryptosoy broth with 4% mucin.
# as §3, §4
# [16] = test system: M. bovis P-7101; test: microbe, parasite or virus in culture; assay type: cell-based; conditions: Mycobacterium tuberculosis variant bovis, P7101, 20 h, read-out: minimum inhibitory concentration (MIC)
compound,measurement,setting,value
"CC1CN(c2c(F)c(N)c3c(=O)c(C(=O)O)cn(C4CC4)c3c2F)CCN1 (stereo not shown) [Compound 1, 5-Amino-1-cyclopropyl-6,8-difluoro-7-(3-methyl-1-piperazinyl)-1,4-dihydro-4-oxoquinoline-3-carboxylic acid]",ED50,[1],5.26 mg/kg
same,MIC,[2],0.05 µg/mL
same,MIC,[3],0.0125 µg/mL
same,MIC,[4],0.0125 µg/mL
same,MIC,[5],0.025 µg/mL
same,MIC,[6],0.1 µg/mL
same,MIC,[7],0.0125 µg/mL
same,MIC,[8],0.025 µg/mL
same,MIC,[9],0.025 µg/mL
same,MIC,[10],0.1 µg/mL
same,oral toxicity,[11],low oral toxicity
same,LD50 at 168 h,[12],> 2000 mg/kg
same,ED50,[13],1.35 mg/kg
same,ED50,[14],10.9 mg/kg
same,ED50,[15],1.11 mg/kg
same,MIC,[16],0.2 µg/mL
